In brackets after ≈: the same amount, converted by molar mass. Several values for one entry are separate records, joined by “and”; a condition that tells them apart may be missing. Equal entries are not always repeated. Where two headings read alike, the source gives them in different places.
Tests used:
[1] = tested on: MvfR-regulated small molecules in PA14; assay: Production of HAQs, 2-AA, DHQ and AA in PA14 cultures (LC-MS); conditions: Pseudomonas aeruginosa
[2] = tested on: mvfR mutant constitutively expressing the pqsABCDE operon; format: cell-based; conditions: Pseudomonas aeruginosa, control about 100, single replicates (Figure 4a)
[3] = tested on: pyocyanin production in PA14; assay: Pyocyanin production assay; conditions: Pseudomonas aeruginosa; for activity at 50 µM: PA14, 18 h, read-out: % Production Pyocyanin; for IC50: PA14, read-out: IC50 pyocyanin production
Experimental: The over-day culture was grown to OD600nm 1.5., diluted again at 1:10,000 in 5 mL LB and incubated with 10 μM of the test compound or the vehicle control for 18 hours at 37 °C and 200 rpm in an incubator shaker. After 18 h, 1 mL of culture was centrifuged for 2 min at 20.000 x g. The supernatant was transferred to a new tube, 200 μL of this were loaded in a flat-bottom 96-well plate, and the pyocyanin levels were quantified by measuring at OD690nm in the infinite F200 plate reader using the Magellan software (Tecan, Switzerland). […] The percent of pyocyanin was calculated compared to the PA14 culture grown in the absence of compounds.
To determine the IC50 of pyocyanin production, we followed the same process as above. […] Using GraphPad Prism Software, the IC50 curve was plotted against percent inhibition of pyocyanin production at each concentration using PA14 in the absence of compounds as a control.

[4] = tested on: 16 MDR P. aeruginosa clinical isolates; assay: Pyocyanin production in MDR clinical isolates; conditions: Pseudomonas aeruginosa, 18 h, Control about 100, replicates
Experimental: The over-day culture was grown to OD600nm 1.5., diluted again at 1:10,000 in 5 mL LB and incubated with 10 μM of the test compound or the vehicle control for 18 hours at 37 °C and 200 rpm in an incubator shaker. After 18 h, 1 mL of culture was centrifuged for 2 min at 20.000 x g. The supernatant was transferred to a new tube, 200 μL of this were loaded in a flat-bottom 96-well plate, and the pyocyanin levels were quantified by measuring at OD690nm in the infinite F200 plate reader using the Magellan software (Tecan, Switzerland). The same procedure was also followed for the pyocyanin production assessment for all the P. aeruginosa clinical isolates assessed in this study. The percent of pyocyanin was calculated compared to the PA14 culture grown in the absence of compounds.
Pyocyanin production was measured in 16 P.
aeruginosa clinical isolates 18hr post-growth in the presence or absence of 10 µM of each NAM
compound. The percent of pyocyanin production was calculated by comparing the same strain grown
in the presence of the vehicle control. b.

[5] = tested on: PA14 isogenic mutant ΔmvfR AT/P cells; assay: AT/P cell formation in ΔmvfR mutant (off-target); conditions: Pseudomonas aeruginosa, PA14, 24 h, read-out: AT/P cell formation, ΔmvfR + compound; PA14 about 100; single replicates (Figure 4b)
ΔmvfR biofilm = assay: Biofilm formation of ΔmvfR mutant (off-target); conditions: Pseudomonas aeruginosa, PA14, 24 h, read-out: Biofilm formation, ΔmvfR + compound; PA14 about 100; single replicates (Figure 4c)
[6] = tested on: pqsA promoter (PA14 PpqsA-GFPASV); assay: pqsA-GFP reporter expression; format: cell-based, Pseudomonas aeruginosa; conditions: Pseudomonas aeruginosa; for activity at 50 µM: PA14, read-out: % Production pqsA-GFP
Experimental: The expression levels of pqsA, which is representative of the pqsABCDE operon transcription, were monitored in the presence of the MvfR inhibitors using PA14 cells containing the PpqsA-GFPASV, a reporter construct of the pqsA promoter fused to a short half-life GFP gene in, such that quantitative quenching of fluorescence corresponds to pqsA promoter repression[22],[32],[48]. […] GFP fluorescence levels were measured at λex = 485 nm/λem = 535 nm after 10 seconds of shaking every 15 min up to 12 h. The IC50 of PpqsA-GFP expression levels was performed as above using the same 13 different concentrations (0.0122–50 μM) for each of the 13 compounds tested.

[7] = Solubility in iPBS pH 7.4 by HPLC; format: physicochemical; conditions: kinetic from dmso stock
Experimental: Solubility of the 10 mM compounds dissolved in DMSO was tested in the isotonic phosphate buffer (iPBS) at pH 7.4 using High-Performance Liquid Chromatography (HPLC). For the preparation of iPBS phosphate-buffered saline tab (Sigma-Aldrich 08057-12Tab-F) is dissolved in 500 mL of deionized water and the final composition of the solution contains 10 mM PBS, 2.7 mM KCl, 140 mM NaCl and 0.05% Tween. A total 10 µL of the compound from a 10 mM stock solution in DMSO was added to the vial, and 190 µL of buffer was added to each vial and mixed with shaking at room temperature for 4 h. Thereafter the samples were filtered, and 160 µL of the sample was mixed with 40 µL of DMSO for the final injection. Ibuprofen (high solubility) and Progesterone (low Solubility) were used as standard compounds. Ammonium Acetate aqueous solution (50 mM, pH 7.4) and the acetonitrile were used as mobile phases A and B, respectively. The measurement of concentration was achieved by comparing of UV absorbance of the sample solution and the known standard solution following an HPLC separation using a generic fast gradient method. The solubility of each compound is expressed by the ratio of compound amount in the sample test solution to the amount of compound in the standard solution.

PA14 AT/P cells = assay: AT/P cells formation assay in PA14; format: cell-based, Pseudomonas aeruginosa; conditions: for inhibition at 10 µM: Pseudomonas aeruginosa, PA14, 24 h, read-out: inhibition of AT/P cells formation
[8] = target: MvfR binding to the pqsA promoter (Pseudomonas aeruginosa, UniProt Q9I4X0); format: cell-based; conditions: D88 −, PQS +; Figure 5c; replicates
PA14 biofilm = assay: Biofilm formation in 96-well plates, PA14; format: cell-based, Pseudomonas aeruginosa; conditions: PA14, 10 µM, 24 h
[9] = read-out: DHQ, ΔmvfR-pqsABCD strain
[10] = read-out: HQNO, ΔmvfR-pqsABCD strain
[11] = read-out: PQS, ΔmvfR-pqsABCD strain
[12] = read-out: Pyocyanin production relative to Control, clinical isolate LGR-4325
[13] = read-out: Pyocyanin production relative to Control, clinical isolate LGR-4326
[14] = read-out: Pyocyanin production relative to Control, clinical isolate LGR-4327
[15] = read-out: Pyocyanin production relative to Control, clinical isolate LGR-4328
[16] = read-out: Pyocyanin production relative to Control, clinical isolate LGR-4330
[17] = read-out: Pyocyanin production relative to Control, clinical isolate LGR-4331 (first section, r117)
[18] = read-out: Pyocyanin production relative to Control, clinical isolate LGR-4331 (second section, r140)
[19] = read-out: Pyocyanin production relative to Control, clinical isolate LGR-4333
[20] = read-out: Pyocyanin production relative to Control, clinical isolate LGR-4343
[21] = read-out: Pyocyanin production relative to Control, clinical isolate LGR-4344
[22] = read-out: Pyocyanin production relative to Control, clinical isolate LGR-4348
[23] = read-out: Pyocyanin production relative to Control, clinical isolate LGR-4356
[24] = read-out: Pyocyanin production relative to Control, clinical isolate LGR-4362
[25] = read-out: Pyocyanin production relative to Control, clinical isolate LGR-4363
[26] = read-out: Pyocyanin production relative to Control, clinical isolate LGR-4364 (first section, r326)
[27] = read-out: Pyocyanin production relative to Control, clinical isolate LGR-4364 (second section, r349)

MvfR binding to the pqsA promoter, sequence (Q9I4X0 whole entry, looked up): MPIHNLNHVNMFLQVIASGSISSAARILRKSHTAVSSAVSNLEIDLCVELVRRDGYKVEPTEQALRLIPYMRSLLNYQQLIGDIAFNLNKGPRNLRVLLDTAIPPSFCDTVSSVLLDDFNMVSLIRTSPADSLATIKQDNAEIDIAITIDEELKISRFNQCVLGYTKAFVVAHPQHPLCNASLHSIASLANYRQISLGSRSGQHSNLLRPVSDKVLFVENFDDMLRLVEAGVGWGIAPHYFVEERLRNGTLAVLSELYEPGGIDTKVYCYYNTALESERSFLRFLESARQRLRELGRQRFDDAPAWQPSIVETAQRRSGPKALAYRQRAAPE

Structure (SMILES) | activity at 50 µM [2, 9] [%] | activity at 50 µM [2, 10] [%] | activity at 50 µM [2, 11] [%] | activity at 50 µM [3] [%] | IC50 [3] [nM] | activity at 10 µM [4, 12] [%] | activity at 10 µM [4, 13] [%] | activity at 10 µM [4, 14] [%] | activity at 10 µM [4, 15] [%] | activity at 10 µM [4, 16] [%] | activity at 10 µM [4, 17] [%] | activity at 10 µM [4, 18] [%] | activity at 10 µM [4, 19] [%] | activity at 10 µM [4, 20] [%] | activity at 10 µM [4, 21] [%] | activity at 10 µM [4, 22] [%] | activity at 10 µM [4, 23] [%] | activity at 10 µM [4, 24] [%] | activity at 10 µM [4, 25] [%] | activity at 10 µM [4, 26] [%] | other results
N#Cc1ccc(NC(=O)CC(=O)Nc2ccc(C#N)c(Cl)c2)cc1 [D95] | 95.2 | 97.2 | 100 | 4 | 900 | 11.5 | 6.63 | 14.1 | 16.3 | 19.6 | 14.8 | 7.46 | 9.75 | 12.1 | 14.6 | 19.2 | 7.92 | 30.4 | 9.55 | 8.11 | activity at 50 µM ([1]; PA14, read-out: % Production 2-AA): 11%; activity at 50 µM ([1]; PA14, read-out: % Production AA): 774%; activity at 50 µM ([1]; PA14, read-out: % Production DHQ): 13%; activity at 50 µM ([1]; PA14, read-out: % Production HHQ): 5%; activity at 50 µM ([1]; PA14, read-out: % Production HQNO): 30%; activity at 50 µM ([1]; PA14, read-out: % Production PQS): 10%; inhibition at 50 µM ([1]; PA14, read-out: HHQ production inhibition): 89 to 99%; inhibition at 50 µM ([1]; PA14, read-out: HQNO production inhibition): 40 to 92%; inhibition at 50 µM ([1]; PA14, read-out: PQS production inhibition): 76 to 97%; inhibition at 50 µM ([1]; PA14, read-out: inhibition of 2-AA production): 82 to 95%; inhibition at 50 µM ([1]; PA14, read-out: inhibition of DHQ production): 82 to 96%; activity at 10 µM [4, 27]: 13.7%; activity at 10 µM [5]: 35.3%; activity at 10 µM (ΔmvfR biofilm): 17.7%; activity at 50 µM [6]: 6%; IC50 ([6]; PA14, read-out: IC50 pqsA-GFP expression, PA14, 13 concentrations): 1090 nM; solubility at 4 h ([7]; pH 7.4, aqueous with cosolvent or surfactant or cyclodextrin): 1.7e-05 M (≈ 5.76 µg/mL); inhibition at 10 µM (PA14 AT/P cells): ≥ 51%
CCCCCCCc1nc2ccccc2c(O)c1O [PQS] |  |  |  |  |  |  |  |  |  |  |  |  |  |  |  |  |  |  |  |  | MvfR binding to the pqsA promoter (ChIP-qPCR) [8]: 12.2267 and 11.783 and 5.7525
O=C(Nc1ccc(Oc2ccccc2)cc1)C(F)C(=O)Nc1ccc(C(F)(F)F)cc1 (stereo not drawn) [D100] | 92.5 | 98.7 | 81.3 | 7 | 380 | 13.3 | 19.1 | 21.7 | 31.1 | 31.1 | 23.5 | 12 | 15.4 | 13.4 | 16.3 | 26.1 | 16.4 | 33 | 10.2 | 13.3 | activity at 50 µM ([2]; read-out: 2-AA, ΔmvfR-pqsABCD strain): 97.5%; activity at 50 µM ([2]; read-out: HHQ, ΔmvfR-pqsABCD strain): 104%; activity at 10 µM [4, 27]: 10.6%; activity at 10 µM [5]: 42.2%; biofilm formation inhibition rate (PA14 biofilm): highest inhibition; activity at 10 µM (ΔmvfR biofilm): 39.3%; activity at 50 µM [6]: 2%; solubility at 4 h ([7]; isotonic phosphate buffer (iPBS), aqueous with cosolvent or surfactant or cyclodextrin, iPBS pH 7.4, HPLC, read-out: Solubility (M) in PBS): 5e-06 M (≈ 2.16 µg/mL); AT/P cells formation, percentage of control (single replicates) (PA14 AT/P cells; PA14, 10 μg mL^−1 meropenem, 10 µM compound, 24 h, control PA14 + vehicle): 18.86% and 47.86% and 24.02%; inhibition at 10 µM (PA14 AT/P cells): ≥ 51%
